From patent publication US20250127168A1, “METHOD FOR PATHOGENS, MICROORGANISMS, AND PARASITES INACTIVATION” (New York Blood Center, Inc., priority 2018, published 2025) come the findings set out here.

In series [1] the test system is Plasmodium falciparum 3D7. Briefly: Inactivation of blood-borne parasites in fresh human red blood cells. Format: cell-based. As to conditions: 250 μM, 24 hours, physiological temperature. The protocol: (§1) Inactivation of blood-borne parasites, Plasmodium falciparum 3D7 and Babesia divergens Rouen, was conducted in fresh human red blood cells for 24 hours at physiological temperature. […] Above six logs inactivation of Candida albicans, a representative of pathogenic fungi, and three logs inactivation of Tetrahymena thermophila, a model organism for ciliated protozoa, were achieved by compound XIV at 250 μM in their respective growth media.

A further series concerns Babesia divergens Rouen. The description is as above. The series is classed as cell-based. Particulars: 250 μM, 24 hours, physiological temperature. The procedure: as §1
In a further series the test system is P. fluorescens. In words: Bacterial inactivation in Ringer's solution, colony agar plate count. Format: cell-based. As to conditions: 100 μM, RT, 1 h treatment. The procedure:
(§2) A panel of G+F and G-bacteria were inactivated in their respective growth medium using compound VI, compound X, and compound XIV. All cells were grown in corresponding media to middle log phase, collected by centrifugation, re-suspended in Ringer's solution (RS), and treated at RT with 100 μM of compound VI, compound X, and compound XIV, which were added to the suspension as 100× concentrate in RS. Controls received RS only. At the end of the incubation, unreacted compound VI, compound X, and compound XIV were neutralized with 10 mM sodium thiophosphate during incubation at RT for 30 min. The viable cells were enumerated using serial dilutions by standard colony agar plate count. Table 1 summarizes the typical results of 1 h treatment of E. coli, P. fluorescens, Y. enterocolitica, B. cereus, S. aureus, and S. epidermidis with compound VI, compound X, and compound XIV.

Another series relates to E. coli. The description is as above. Particulars: 100 μM, RT, 1 h treatment. Format: cell-based. The protocol:
as §2

The test system of the next series is B. cereus. The series is described as above. The series is classed as cell-based. As to conditions: 100 μM, RT, 1 h treatment. The protocol: as §2
The next series has as its system Y. enterocolitica. The description is as above. Particulars: 100 μM, RT, 1 h treatment. Format: cell-based. The protocol: as §2
The subject of the next series is S. epidermidis. The series is described as above. The series is classed as cell-based. Particulars: 100 μM, RT, 1 h treatment. The procedure: as §2
In a further series the test system is S. aureus. The description is as above. The series is classed as cell-based. As to conditions: 100 μM, RT, 1 h treatment. The procedure: as §2
For another series, the system named is Candida albicans. In words: Fungal inactivation in growth media. The series is classed as cell-based. As to conditions: 250 μM. The protocol:
as §1

Series [2] deals with Human respiratory syncytial virus (RSV). Briefly: Viral inactivation, modified plaque assay. Format: cell-based. Particulars: 6 h, Ringer's/Lactate solution. The procedure: Human respiratory syncytial virus (RSV) was inactivated by using Compound VI or Compound X. For that purpose, sucrose gradient-purified virus was treated with 100 μM of Compound VI and Compound X at RT. […] The virus titers were determined using standard 10× serial dilutions in a modified plaque assay. For mock-treated virus no significant changes in RSV infectivity were found even after 6 h incubation at RT (in different experiments, the reduction of titers were in the range of 0.11-0.36 Login PFU/mL).
Inactivation of RSV with different concentrations of Compound XVI at RT and 40° C. was performed as described in Example 9.

Series [3] is described as follows: Neutralization of compound X by ethyl 2-mercaptoacetate (LCMS). Format: physicochemical. As to conditions: PBS, RT; for Peak Areas (LCMS): 100 μM X + 10 mM ethyl 2-mercaptoacetate. The protocol:
100 μM solution of compound X in phosphate buffered saline was incubated at room temperature with 10 mM of ethyl-2-mercaptoacetate, and the change of the concentration of compound X, as well as the formation of the intermediate compound of neutralization (XXI) and the final compound of neutralization XXII was determined by LCMS analysis of the mixture. The reaction scheme of neutralization is presented below. The peak areas of compound X, intermediate neutralization product, Q1 (compound XXI) and final neutralization product, Q2 (compound XXII) are presented in the Table 8 below, and in FIG. 18.

With `CN(CCCCN(C)CCCN(C)CCCN1CC1)CCCN(C)CCCN1CC1` [Compound XIV], in series [1], the “reduction of the number of viable plasmodium organisms” value is reported as not below 7 logs. In addition, the “reduction of the number of viable babesia” value with Babesia divergens Rouen is listed as 8 logs. For the same molecule, the Titer is on record as not above 1.00 Log10CFU/mL in the series with P. fluorescens; 3.51 Log10CFU/mL with E. coli; not above 1.00 Log10CFU/mL in the series on B. cereus; 5.04 Log10CFU/mL in the series on Y. enterocolitica; 6.32 Log10CFU/mL in the series on S. epidermidis; 5.08 Log10CFU/mL in the series on S. aureus. Besides, the “inactivation of Candida albicans” value in the series on Candida albicans is “Above six”.

On to `CN(CCCN1CC1)CCCN1CC1` [Compound XVI, 3-(aziridin-1-yl)-N-(3-(aziridin-1-yl)propyl)-N-methylpropan-1-amine], for which the “RSV Inactivation (difference between TO titer and titer)” value is more than 6.48 Log10 PFU/mL in series [2] (40° C., 100 μM); more than 6.48 Log10 PFU/mL in series [2] (40° C., 250 μM); more than 6.48 Log10 PFU/mL in [2] (40° C., 500 μM); 5.02 Log10 PFU/mL in series [2] (RT, 100 μM); 5.50 Log10 PFU/mL in series [2] (RT, 250 μM); more than 6.48 Log10 PFU/mL in series [2] (RT, 500 μM). For the same molecule, the “RSV titer” value in series [2] (40° C., 100 μM) is recorded as less than 0.52 Log10 PFU/mL; in series [2] (40° C., 250 μM) it was less than 0.52 Log10 PFU/mL; in series [2] (40° C., 500 μM) it was less than 0.52 Log10 PFU/mL; in [2] (RT, 100 μM), 1.98 Log10 PFU/mL; in [2] (RT, 250 μM), 1.50 Log10 PFU/mL; in series [2] (RT, 500 μM), less than 0.52 Log10 PFU/mL.

With `CCOC(=O)CSCCNCCCN(C)CCCCN(C)CCCN(C)CCCNCCSCC(=O)OCC` [XXII], the “Peak Areas (LCMS)” value amounted to 48.7 in [3] (Time 6 min); 131.9 in series [3] (Time 14.5 min); 214.4 in series [3] (Time 23.1 min); 280.7 in [3] (Time 31.6 min); 349.3 in series [3] (Time 40.2 min); 397.1 in [3] (Time 48.7 min). The “Peak Areas (LCMS)” value was determined as 424.3 in series [3] (Time 57.3 min); 479.4 in series [3] (Time 65.8 min); 489.3 in [3] (Time 74.3 min); 498.6 in [3] (Time 82.9 min); 513.2 in series [3] (Time 91.4 min); 527 in [3] (Time 100.0 min). Moreover, the figures for the “Peak Areas (LCMS)” value in [3] (Time 108.5 min), in [3] (Time 117.1 min) and in series [3] (Time 125.6 min) were 520.5, 548.8 and 536.5, respectively.

Regarding `CCOC(=O)CSCCNCCCN(C)CCCN(C)CCCCN(C)CCCN1CC1` [XXI], the “first order rate constant of concentration decrease” value in series [3] (10 mM ethyl 2-mercaptoacetate) worked out at 0.026 min⁻¹. For the same molecule, the “Peak Areas (LCMS)” value in series [3] (Time 6 min) is on record as 181.6; in [3] (Time 14.5 min), 307; in series [3] (Time 23.1 min) it was 363.5; in series [3] (Time 31.6 min), 375.8; in [3] (Time 40.2 min), 390.1; in series [3] (Time 48.7 min), 368.5. Also, the “Peak Areas (LCMS)” value in [3] (Time 57.3 min) amounted to 338.6; in series [3] (Time 65.8 min), 331.1; in [3] (Time 74.3 min) it was 306.5; in series [3] (Time 82.9 min), 268.6; in series [3] (Time 91.4 min), 256; in [3] (Time 100.0 min) it was 227.8. Besides, the entries for the “Peak Areas (LCMS)” value in [3] (Time 108.5 min), in series [3] (Time 117.1 min) and in series [3] (Time 125.6 min) were 202.2, 195 and 174, respectively.
